The values below are quoted from earlier work in patent US20080286344A1, “Solid form” (priority 2007, published 2008).

For `Cn1c(=O)c2[nH]cnc2n(C)c1=O` [theophylline], the “Solubility in water, g of water for 1 g” value (1 g active in stated g of water) is given as 100-1000 g water. The “Solubility in water (descriptive term)” value (water) is “slightly soluble”.
